The values that follow come from ChEMBL document CHEMBL1201862, “PubChem BioAssay data set” (2004).

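Where inhibition never reached the appropriate level, the endpoint shown equals the highest concentration tested. Otherwise, values were interpolated linearly from a five-concentration, 48-hour dose response in 96-well plates. GI50 marks 50% less growth.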 Active and inactive are the calls of the source. Rule as the data show it: active = GI50 up to about 1.1 µM and inactive = higher.

Test systems include CAKI-1; HCT-116; HCT-15; HOP-62; HT-29; Hs-578T; MDA-MB-231; MOLT-4; NCI-H226; NCI-H23; NCI-H460; OVCAR-3; SF-268; SK-OV-3; SW-620; UACC-62; UO-31; U-251; MCF7.
Holding throughout (experiment): NCI tumour cell line growth inhibition, 48 h

With `OCc1ccc2c(c1)CC1(Cc3ccccc3C1)C2`, the GI50 with CAKI-1 is 15.9 µM (inactive); with HCT-116 it was 14.3 µM (inactive); in the test on HCT-15, 25.8 µM; with HOP-62, 25.6 µM (inactive); in the test with HT-29, 16.8 µM (inactive); in the test with Hs-578T, 15.8 µM (inactive). Further, the GI50 is 10.1 µM (inactive) in the test on MDA-MB-231; > 10 µM (inactive) with MOLT-4; 28.1 µM (inactive) in the test with NCI-H226; 33 µM (inactive) in the test on NCI-H23; 19.6 µM (inactive) in the test on NCI-H460; 23 µM (inactive) in the test with OVCAR-3. Also, the GI50 in the test on SF-268 is 18.1 µM (inactive); in the test with SK-OV-3, 25.6 µM (inactive); in the test with SW-620, 18.4 µM (inactive); with UACC-62, 20.1 µM (inactive); with UO-31 it was 11.8 µM (inactive).

For `O=C1C2C3C=C4c5ccccc5N(c5ccccc5)C4(C2C(=O)N1c1ccc(Br)cc1)[C@H]1C(=O)N(c2ccc(Br)cc2)C(=O)[C@@H]31` (some centres not stated), the GI50 is 18.8 µM (inactive) in the test with CAKI-1; > 100 µM (inactive) in the test with HCT-116; over 100 µM in the test with HCT-15; > 100 µM (inactive) in the test with HOP-62; > 100 µM (inactive) with HT-29; 8.89 µM (inactive) with MOLT-4. Besides, the GI50 in the test on NCI-H226, in the test on NCI-H23, in the test with NCI-H460, in the test on OVCAR-3, with SK-OV-3 and in the test with SW-620 was > 100 µM (inactive) in each case. In addition, the GI50 in the test on U-251, in the test on UACC-62 and in the test on UO-31 was > 100 µM (inactive) throughout.

As for `CC(=O)ON(C(C)=O)c1ccc(-c2nc3ccccc3s2)cc1C`, the GI50 with CAKI-1 was 10.4 µM (inactive); in the test with HCT-116, 23.4 µM (inactive); in the test with HCT-15 it was 12.9 µM; in the test with HOP-62 it was 21.2 µM (inactive); in the test with HT-29, 32 µM (inactive); in the test on Hs-578T, 37.8 µM (inactive). Moreover, the GI50 was 33.8 µM (inactive) in the test with MDA-MB-231; 66.7 µM (inactive) with MOLT-4; 2.6 µM (inactive) with NCI-H226; 52.7 µM (inactive) in the test with NCI-H23; 21.3 µM (inactive) with NCI-H460; 25.8 µM (inactive) in the test with OVCAR-3. Also, the GI50 in the test with SF-268 is 52.1 µM (inactive); in the test with SW-620, 38.3 µM (inactive); in the test with U-251, 10.4 µM (inactive); in the test with UACC-62, 44.3 µM (inactive); with UO-31, 50.2 µM (inactive).

With `Cc1noc(C)c1/N=N/c1ccc2nonc2c1N`, the GI50 is > 100 µM (inactive) with CAKI-1; > 100 µM (inactive) in the test on HCT-116; over 100 µM with HCT-15; 79.4 µM (inactive) with HOP-62; > 100 µM (inactive) in the test with HT-29; > 100 µM (inactive) in the test with MCF7. Besides, the GI50 in the test on MDA-MB-231 is > 100 µM (inactive); in the test on MOLT-4 it was > 100 µM (inactive); with NCI-H23, 46.5 µM (inactive); in the test on NCI-H460 it was > 100 µM (inactive); in the test with OVCAR-3 it was > 100 µM (inactive); in the test with SF-268, > 100 µM (inactive). In addition, the GI50 in the test with SK-OV-3 is 36.7 µM (inactive); in the test on SW-620 it was > 100 µM (inactive); with UACC-62, > 100 µM (inactive); in the test on UO-31, 21 µM (inactive).

`Cc1ccnc(NC(=S)Nc2ccc([N+](=O)[O-])cc2)c1`: the GI50 was > 100 µM (inactive) with HCT-116; over 100 µM in the test on HCT-15; 78 µM (inactive) in the test with HOP-62; > 100 µM (inactive) in the test with HT-29; 24 µM (inactive) in the test on Hs-578T; > 100 µM (inactive) in the test on MCF7. Moreover, the GI50 in the test with MOLT-4 was > 100 µM (inactive); in the test on NCI-H226, > 100 µM (inactive); in the test with NCI-H23 it was > 100 µM (inactive); with NCI-H460 it was 80.5 µM (inactive); in the test on SF-268 it was 63.5 µM (inactive); in the test on SK-OV-3, 37.9 µM (inactive). For the same molecule, the GI50 was > 100 µM (inactive) in the test with SW-620, 49 µM (inactive) in the test on U-251, > 100 µM (inactive) in the test on UACC-62 and > 100 µM (inactive) in the test with UO-31.

With `OCC1OC(n2nc(-c3ccccc3)nc2-c2cnccn2)C(O)C1O` (configuration not stated), the GI50 with HCT-116 is > 100 µM (inactive); in the test on HCT-15 it was over 100 µM; in the test with HOP-62, > 100 µM (inactive); with HT-29, > 100 µM (inactive); in the test on MCF7, > 100 µM (inactive); with MDA-MB-231, > 100 µM (inactive). The GI50 in the test on MOLT-4, in the test on NCI-H23, with NCI-H460, in the test with OVCAR-3, in the test with SF-268 and in the test with SK-OV-3 was > 100 µM (inactive) in each case. For the same molecule, the GI50 in the test on SW-620, in the test on U-251, in the test on UACC-62 and with UO-31 was > 100 µM (inactive) each time.

For the molecule `c1ccc(CSP234N5CCN2CCN3CCN4CC5)c(CSP234N5CCN2CCN3CCN4CC5)c1`, the GI50 was > 100 µM (inactive) in the test on CAKI-1; > 100 µM (inactive) with HCT-116; over 100 µM with HCT-15; > 100 µM (inactive) with HOP-62; 37.2 µM (inactive) with HT-29; 80.2 µM (inactive) in the test on Hs-578T. In addition, the GI50 in the test on MCF7 is > 100 µM (inactive); with MDA-MB-231 it was > 100 µM (inactive); in the test on MOLT-4 it was 65.2 µM (inactive); in the test with NCI-H23, > 100 µM (inactive); in the test on NCI-H460, > 100 µM (inactive); in the test with OVCAR-3, > 100 µM (inactive). Further, the GI50 with SF-268 is > 100 µM (inactive); in the test on SW-620 it was > 100 µM (inactive); in the test with U-251 it was > 100 µM (inactive); in the test on UACC-62, > 100 µM (inactive); in the test with UO-31, 81.1 µM (inactive).

Regarding `COC(=O)C12C34C=CC5(CCC6(C=CC1(CC3)O6)C52C(=O)OC)O4` (configuration not stated), the GI50 with CAKI-1, in the test on HCT-116, with HOP-62, with HT-29, with MOLT-4 and with NCI-H226 was > 100 µM (inactive) in each case. In addition, the GI50 in the test on NCI-H23, in the test on NCI-H460, in the test on SF-268, in the test on SK-OV-3, in the test on SW-620 and in the test with U-251 was > 100 µM (inactive) in each case.

Consider `COc1ccc(OC)c(CC(=O)c2ccc(O)c(C(=O)NCCc3ccc(F)cc3)c2)c1`, for which the GI50 in the test on CAKI-1 was 3.26 µM (inactive); in the test with HCT-15, 2.3 µM; in the test on HOP-62 it was 1.54 µM (inactive); in the test on HT-29, 9.86 µM (inactive); with Hs-578T, 3.1 µM (inactive); with MCF7, 2.99 µM (inactive). Besides, the GI50 with MDA-MB-231 is 4.74 µM (inactive); with MOLT-4 it was 5.04 µM (inactive); in the test on NCI-H23 it was 3.12 µM (inactive); in the test on NCI-H460, 3.85 µM (inactive); with OVCAR-3 it was 1.43 µM (inactive); in the test on SF-268, 4.13 µM (inactive). Besides, the GI50 in the test on SK-OV-3 was 2.69 µM (inactive); in the test with SW-620 it was 4.18 µM (inactive); in the test on U-251, 3.6 µM (inactive); in the test on UO-31, 4.76 µM (inactive).

Regarding `O=C(O)c1cc(O)nc(SCc2ccccc2)n1`, the GI50 with CAKI-1 is > 100 µM (inactive); in the test with HCT-116, > 100 µM (inactive); with HCT-15, over 100 µM; in the test with HOP-62, > 100 µM (inactive); in the test with HT-29 it was > 100 µM (inactive); with MDA-MB-231 it was > 100 µM (inactive). The GI50 in the test on MOLT-4, in the test with NCI-H226, in the test on NCI-H23, in the test on NCI-H460, with OVCAR-3 and in the test with SF-268 was > 100 µM (inactive) each time. Also, the GI50 in the test with SW-620, in the test on U-251, in the test on UACC-62 and with UO-31 was > 100 µM (inactive) throughout.

Regarding `C/C(=N/NC(=O)C(N)=O)C(CC(C(=O)Nc1ccccc1C)/C(C)=N\NC(=O)C(N)=O)C(=O)Nc1ccccc1C` (configuration not stated), the GI50 was > 100 µM (inactive) with CAKI-1; > 100 µM (inactive) with HOP-62; > 100 µM (inactive) in the test on HT-29; 75.9 µM (inactive) in the test with MOLT-4; > 100 µM (inactive) in the test on NCI-H226; > 100 µM (inactive) in the test on NCI-H23. In addition, the GI50 with NCI-H460, in the test with OVCAR-3, with SF-268, in the test with SK-OV-3, in the test with SW-620 and in the test on U-251 was > 100 µM (inactive) in each case. For the same molecule, in the test on UO-31, the GI50 is 70.5 µM (inactive).

Consider `COc1ccc2c(c1)CC[C@@H]1C2CC[C@]2(C)C(=O)NC(=O)CC12` (some centres not stated), for which the GI50 is > 100 µM (inactive) in the test with CAKI-1; > 100 µM (inactive) in the test with HCT-116; over 100 µM in the test on HCT-15; > 100 µM (inactive) in the test on HOP-62; 56.2 µM (inactive) in the test on HT-29; 61.8 µM (inactive) in the test with MOLT-4. Further, the GI50 is 67.5 µM (inactive) with NCI-H226; > 100 µM (inactive) in the test with NCI-H23; > 100 µM (inactive) with NCI-H460; > 100 µM (inactive) in the test with OVCAR-3; > 100 µM (inactive) in the test on SF-268; > 100 µM (inactive) with SK-OV-3. Also, the GI50 in the test on SW-620 was > 100 µM (inactive); in the test with U-251, > 100 µM (inactive); in the test on UACC-62, > 100 µM (inactive); with UO-31, 97.7 µM (inactive).
